Reference: patent publication EP4722212A1, “NOVEL COMPOUND FOR INHIBITING PROTEIN KINASES AND PHARMACEUTICAL COMPOSITION COMPRISING SAME” (Magicbullettherapeutics Co., Ltd., priority 2023, dated 2024)
Read-outs that look alike come from different tables or passages of the source.

Experiments:
Test in all cases: Kinase panel
Assay type in all cases: biochemical
BMPR2 = BMPR2 (Homo sapiens, UniProt Q13873); details: BMPR2, 1 µM; read-out: residual enzyme activity
Summary of the method: (§1)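 Full kinase panel, biochemical readout. A single 1 µM compound concentration was tested, and residual activity was derived; kinases whose activity dropped to 40% or less were recorded.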

CDK16/CYCLIN Y (PCTAIRE) = CDK16/CYCLIN Y (PCTAIRE) (Homo sapiens, UniProt Q00536); details: read-out: residual enzyme activity
Summary of the method: as §1

CSK = CSK (Homo sapiens, UniProt P41240); details: read-out: residual enzyme activity
Summary of the method: as §1

DDR2 = DDR2 (Homo sapiens, UniProt Q16832); details: DDR2, 1 µM; read-out: residual enzyme activity
Summary of the method: as §1

DYRK3 = DYRK3 (Homo sapiens, UniProt O43781); details: DYRK3, 1 µM; read-out: residual enzyme activity
Summary of the method: as §1

EPHA2 = EPHA2 (Homo sapiens, UniProt P29317); details: EPHA2, 1 µM; read-out: residual enzyme activity
Summary of the method: as §1

FAK/PTK2 = FAK/PTK2 (Homo sapiens, UniProt Q05397); details: FAK/PTK2, 1 µM; read-out: residual enzyme activity
Summary of the method: as §1

FLT1/VEGFR1 = FLT1/VEGFR1 (Homo sapiens, UniProt P17948); details: FLT1/VEGFR1, 1 µM; read-out: residual enzyme activity
Summary of the method: as §1

GRK6 = GRK6 (Homo sapiens, UniProt P43250); details: GRK6, 1 µM; read-out: residual enzyme activity
Summary of the method: as §1

JNK3 = JNK3 (Homo sapiens, UniProt P53779); details: JNK3, 1 µM; read-out: residual enzyme activity
Summary of the method: as §1

KDR/VEGFR2 = KDR/VEGFR2 (Homo sapiens, UniProt P35968); details: KDR/VEGFR2, 1 µM; read-out: residual enzyme activity
Summary of the method: as §1

LKB1 = LKB1 (Homo sapiens, UniProt Q15831); details: LKB1, 1 µM; read-out: residual enzyme activity
Summary of the method: as §1

LYN = LYN (Homo sapiens, UniProt P07948); details: read-out: residual enzyme activity
Summary of the method: as §1

MAPKAPK3 = MAPKAPK3 (Homo sapiens, UniProt Q16644); details: MAPKAPK3, 1 µM; read-out: residual enzyme activity
Summary of the method: as §1

MARK3 = MARK3 (Homo sapiens, UniProt P27448); details: MARK3, 1 µM; read-out: residual enzyme activity
Summary of the method: as §1

MEKK3 = MEKK3 (Homo sapiens, UniProt Q99759); details: MEKK3, 1 µM; read-out: residual enzyme activity
Summary of the method: as §1

MSK2/RPS6KA4 = MSK2/RPS6KA4 (Homo sapiens, UniProt O75676); details: MSK2/RPS6KA4, 1 µM; read-out: residual enzyme activity
Summary of the method: as §1

MST3/STK24 = MST3/STK24 (Homo sapiens, UniProt Q9Y6E0); details: MST3/STK24, 1 µM; read-out: residual enzyme activity
Summary of the method: as §1

NEK9 = NEK9 (Homo sapiens, UniProt Q8TD19); details: NEK9, 1 µM; read-out: residual enzyme activity
Summary of the method: as §1

PKCB1 = PKCB1 (Homo sapiens, UniProt P05771); details: read-out: residual enzyme activity
Summary of the method: as §1

PKCMU/PRKD1 = PKCMU/PRKD1 (Homo sapiens, UniProt Q15139); details: PKCmu/PRKD1, 1 µM; read-out: residual enzyme activity
Summary of the method: as §1

PKCNU/PRKD3 = PKCNU/PRKD3 (Homo sapiens, UniProt O94806); details: PKCnu/PRKD3, 1 µM; read-out: residual enzyme activity
Summary of the method: as §1

PLK3 = PLK3 (Homo sapiens, UniProt Q9H4B4); details: PLK3, 1 µM; read-out: residual enzyme activity
Summary of the method: as §1

PYK2 = PYK2 (Homo sapiens, UniProt Q14289); details: PYK2, 1 µM; read-out: residual enzyme activity
Summary of the method: as §1

ROS/ROS1 = ROS/ROS1 (Homo sapiens, UniProt P08922); details: ROS/ROS1, 1 µM; read-out: residual enzyme activity
Summary of the method: as §1

RSK2 = RSK2 (Homo sapiens, UniProt P51812); details: RSK2, 1 µM; read-out: residual enzyme activity
Summary of the method: as §1

SSTK/TSSK6 = SSTK/TSSK6 (Homo sapiens, UniProt Q9BXA6); details: SSTK/TSSK6, 1 µM; read-out: residual enzyme activity
Summary of the method: as §1

STK22D/TSSK1 = STK22D/TSSK1 (Homo sapiens, UniProt Q9BXA7); details: STK22D/TSSK1, 1 µM; read-out: residual enzyme activity
Summary of the method: as §1

TESK2 = TESK2 (Homo sapiens, UniProt Q96S53); details: TESK2, 1 µM; read-out: residual enzyme activity
Summary of the method: as §1

TYK2 = TYK2 (Homo sapiens, UniProt P29597); details: TYK2, 1 µM; read-out: residual enzyme activity
Summary of the method: as §1

Sequence of GRK6 (P43250 whole entry, species assumed): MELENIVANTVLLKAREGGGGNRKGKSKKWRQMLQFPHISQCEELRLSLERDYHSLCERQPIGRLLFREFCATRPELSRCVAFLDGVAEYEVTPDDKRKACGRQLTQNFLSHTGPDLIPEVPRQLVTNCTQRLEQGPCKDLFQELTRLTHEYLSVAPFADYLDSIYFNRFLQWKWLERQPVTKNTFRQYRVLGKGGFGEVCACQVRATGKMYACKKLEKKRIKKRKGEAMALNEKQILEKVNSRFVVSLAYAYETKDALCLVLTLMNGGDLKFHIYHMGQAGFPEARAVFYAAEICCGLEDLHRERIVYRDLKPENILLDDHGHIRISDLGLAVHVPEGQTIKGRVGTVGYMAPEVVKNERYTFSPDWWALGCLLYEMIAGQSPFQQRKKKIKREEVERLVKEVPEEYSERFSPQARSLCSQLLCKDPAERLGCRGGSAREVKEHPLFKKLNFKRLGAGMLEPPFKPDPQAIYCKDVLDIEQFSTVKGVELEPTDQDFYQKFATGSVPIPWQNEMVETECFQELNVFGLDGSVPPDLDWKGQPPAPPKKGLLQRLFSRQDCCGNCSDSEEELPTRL
Sequence of MAPKAPK3 (Q16644 whole entry, species assumed): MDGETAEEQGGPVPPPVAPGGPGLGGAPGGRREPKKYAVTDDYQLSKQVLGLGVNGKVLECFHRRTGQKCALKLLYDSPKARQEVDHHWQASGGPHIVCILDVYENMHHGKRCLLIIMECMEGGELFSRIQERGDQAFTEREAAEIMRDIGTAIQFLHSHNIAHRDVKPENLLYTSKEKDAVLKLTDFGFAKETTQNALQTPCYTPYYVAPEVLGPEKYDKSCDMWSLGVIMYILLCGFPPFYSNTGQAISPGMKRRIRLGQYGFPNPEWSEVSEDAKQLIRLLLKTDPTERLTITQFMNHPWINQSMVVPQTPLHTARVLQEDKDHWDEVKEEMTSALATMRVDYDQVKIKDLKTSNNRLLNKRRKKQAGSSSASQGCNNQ
Sequence of KDR/VEGFR2 (P35968 20-1356): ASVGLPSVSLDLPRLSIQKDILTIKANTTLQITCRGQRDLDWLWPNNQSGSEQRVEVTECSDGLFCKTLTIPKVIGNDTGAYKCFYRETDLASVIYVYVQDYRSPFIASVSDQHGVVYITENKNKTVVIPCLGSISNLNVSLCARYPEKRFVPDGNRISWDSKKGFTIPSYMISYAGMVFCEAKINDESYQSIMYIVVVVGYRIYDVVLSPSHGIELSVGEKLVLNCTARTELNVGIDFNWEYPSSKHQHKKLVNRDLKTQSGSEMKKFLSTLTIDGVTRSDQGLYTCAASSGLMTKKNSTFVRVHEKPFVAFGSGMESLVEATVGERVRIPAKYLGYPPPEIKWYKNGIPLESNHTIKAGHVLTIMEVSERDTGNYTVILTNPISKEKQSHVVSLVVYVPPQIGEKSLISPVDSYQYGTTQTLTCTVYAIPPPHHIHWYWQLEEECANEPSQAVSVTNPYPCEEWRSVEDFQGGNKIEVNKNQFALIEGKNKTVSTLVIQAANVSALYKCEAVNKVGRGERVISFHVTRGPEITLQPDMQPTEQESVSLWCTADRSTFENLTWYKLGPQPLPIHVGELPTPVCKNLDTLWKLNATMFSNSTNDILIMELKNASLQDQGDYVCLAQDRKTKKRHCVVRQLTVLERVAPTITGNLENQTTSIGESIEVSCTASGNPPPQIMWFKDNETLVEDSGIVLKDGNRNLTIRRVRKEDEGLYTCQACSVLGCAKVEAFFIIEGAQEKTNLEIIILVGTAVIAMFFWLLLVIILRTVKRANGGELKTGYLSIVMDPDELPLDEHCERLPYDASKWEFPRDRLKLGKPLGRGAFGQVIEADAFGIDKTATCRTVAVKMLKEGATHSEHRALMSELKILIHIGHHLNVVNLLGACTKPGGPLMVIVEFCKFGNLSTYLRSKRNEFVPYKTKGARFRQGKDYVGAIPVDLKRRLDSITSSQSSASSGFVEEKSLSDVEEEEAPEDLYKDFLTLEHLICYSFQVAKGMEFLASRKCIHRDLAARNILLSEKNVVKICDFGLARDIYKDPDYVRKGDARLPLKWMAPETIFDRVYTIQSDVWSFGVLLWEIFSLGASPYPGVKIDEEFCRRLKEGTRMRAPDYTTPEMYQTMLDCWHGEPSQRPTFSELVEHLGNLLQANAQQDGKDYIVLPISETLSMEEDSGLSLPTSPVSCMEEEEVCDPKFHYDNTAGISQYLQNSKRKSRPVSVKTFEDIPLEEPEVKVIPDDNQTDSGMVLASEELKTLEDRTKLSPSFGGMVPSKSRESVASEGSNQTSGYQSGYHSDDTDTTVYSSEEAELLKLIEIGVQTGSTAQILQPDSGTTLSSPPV
Sequence of CDK16/CYCLIN Y (PCTAIRE) (Q00536 whole entry, species assumed): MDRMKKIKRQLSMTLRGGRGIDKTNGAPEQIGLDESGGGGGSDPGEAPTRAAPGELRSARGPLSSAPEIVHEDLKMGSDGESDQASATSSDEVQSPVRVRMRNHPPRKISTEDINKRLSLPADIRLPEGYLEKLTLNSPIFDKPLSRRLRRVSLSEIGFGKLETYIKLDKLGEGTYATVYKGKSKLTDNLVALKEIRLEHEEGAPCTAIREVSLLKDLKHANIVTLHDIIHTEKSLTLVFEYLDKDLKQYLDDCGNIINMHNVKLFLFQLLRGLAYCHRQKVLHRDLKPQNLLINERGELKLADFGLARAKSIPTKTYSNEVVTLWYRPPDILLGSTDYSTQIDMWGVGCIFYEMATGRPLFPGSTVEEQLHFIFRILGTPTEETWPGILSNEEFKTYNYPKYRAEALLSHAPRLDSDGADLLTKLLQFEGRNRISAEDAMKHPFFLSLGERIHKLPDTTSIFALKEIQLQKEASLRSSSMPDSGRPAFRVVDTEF
Sequence of CDK16/CYCLIN Y (PCTAIRE) (Q8ND76 whole entry partner, species assumed): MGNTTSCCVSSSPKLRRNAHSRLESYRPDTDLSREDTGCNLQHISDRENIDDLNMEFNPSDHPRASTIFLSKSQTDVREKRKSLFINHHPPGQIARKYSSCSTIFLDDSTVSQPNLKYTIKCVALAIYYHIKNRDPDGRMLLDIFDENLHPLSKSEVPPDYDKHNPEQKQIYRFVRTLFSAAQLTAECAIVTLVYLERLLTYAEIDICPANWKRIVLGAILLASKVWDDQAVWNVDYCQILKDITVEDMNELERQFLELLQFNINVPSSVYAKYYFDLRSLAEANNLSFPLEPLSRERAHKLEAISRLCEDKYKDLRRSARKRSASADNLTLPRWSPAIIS
Sequence of BMPR2 (Q13873 27-1038): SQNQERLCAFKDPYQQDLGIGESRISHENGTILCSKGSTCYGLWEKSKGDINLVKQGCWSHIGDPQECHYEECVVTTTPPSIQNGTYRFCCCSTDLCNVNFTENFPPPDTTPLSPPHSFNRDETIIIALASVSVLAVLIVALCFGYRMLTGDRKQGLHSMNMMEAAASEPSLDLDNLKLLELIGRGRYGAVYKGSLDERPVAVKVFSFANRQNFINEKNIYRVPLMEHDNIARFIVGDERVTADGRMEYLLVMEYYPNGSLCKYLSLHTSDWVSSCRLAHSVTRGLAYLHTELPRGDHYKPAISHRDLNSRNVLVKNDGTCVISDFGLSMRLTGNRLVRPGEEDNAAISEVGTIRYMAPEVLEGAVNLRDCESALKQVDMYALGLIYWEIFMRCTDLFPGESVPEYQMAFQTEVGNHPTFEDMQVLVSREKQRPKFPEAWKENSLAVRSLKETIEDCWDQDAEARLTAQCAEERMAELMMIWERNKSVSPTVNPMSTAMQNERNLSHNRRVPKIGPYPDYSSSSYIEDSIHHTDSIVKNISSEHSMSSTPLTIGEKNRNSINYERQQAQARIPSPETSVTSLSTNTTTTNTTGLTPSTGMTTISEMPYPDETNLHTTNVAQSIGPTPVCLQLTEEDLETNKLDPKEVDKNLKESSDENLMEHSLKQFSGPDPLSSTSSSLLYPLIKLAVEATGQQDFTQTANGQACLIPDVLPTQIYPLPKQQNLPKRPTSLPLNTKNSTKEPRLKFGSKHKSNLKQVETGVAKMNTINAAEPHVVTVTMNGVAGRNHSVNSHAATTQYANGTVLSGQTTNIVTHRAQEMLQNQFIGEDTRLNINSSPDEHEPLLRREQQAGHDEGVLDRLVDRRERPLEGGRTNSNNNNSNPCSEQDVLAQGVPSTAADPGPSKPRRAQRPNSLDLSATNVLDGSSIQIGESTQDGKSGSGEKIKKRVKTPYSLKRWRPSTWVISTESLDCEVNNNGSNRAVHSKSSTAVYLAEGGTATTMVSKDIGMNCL
Sequence of DDR2 (Q16832 22-855, species assumed): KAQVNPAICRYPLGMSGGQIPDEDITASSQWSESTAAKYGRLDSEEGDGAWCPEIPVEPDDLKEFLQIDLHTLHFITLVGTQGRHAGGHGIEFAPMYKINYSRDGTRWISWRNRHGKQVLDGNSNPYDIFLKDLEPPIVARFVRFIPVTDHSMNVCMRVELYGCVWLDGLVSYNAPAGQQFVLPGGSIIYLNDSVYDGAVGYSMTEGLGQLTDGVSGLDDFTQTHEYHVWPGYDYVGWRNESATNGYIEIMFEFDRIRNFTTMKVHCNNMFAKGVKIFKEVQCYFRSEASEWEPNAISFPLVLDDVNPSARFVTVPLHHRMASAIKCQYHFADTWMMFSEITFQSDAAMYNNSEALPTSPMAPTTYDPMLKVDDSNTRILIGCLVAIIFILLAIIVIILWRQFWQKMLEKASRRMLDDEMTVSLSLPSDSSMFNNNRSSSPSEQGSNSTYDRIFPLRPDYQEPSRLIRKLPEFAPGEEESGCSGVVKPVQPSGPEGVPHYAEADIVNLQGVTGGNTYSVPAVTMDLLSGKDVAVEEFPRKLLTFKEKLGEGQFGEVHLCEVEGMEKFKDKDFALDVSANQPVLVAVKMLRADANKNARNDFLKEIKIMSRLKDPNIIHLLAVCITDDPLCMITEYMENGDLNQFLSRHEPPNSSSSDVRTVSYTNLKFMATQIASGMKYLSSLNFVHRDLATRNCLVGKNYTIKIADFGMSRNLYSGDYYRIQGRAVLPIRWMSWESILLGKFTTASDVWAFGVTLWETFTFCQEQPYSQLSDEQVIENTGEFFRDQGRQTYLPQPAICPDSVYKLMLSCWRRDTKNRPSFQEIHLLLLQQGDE

Row | Structure (SMILES) | remaining activity at 1 µM (BMPR2) | remaining activity at 1 µM (CDK16/CYCLIN Y (PCTAIRE)) | remaining activity at 1 µM (CSK) | remaining activity at 1 µM (DDR2) | remaining activity at 1 µM (DYRK3) | remaining activity at 1 µM (EPHA2) | remaining activity at 1 µM (FAK/PTK2) | remaining activity at 1 µM (FLT1/VEGFR1) | remaining activity at 1 µM (GRK6) | remaining activity at 1 µM (JNK3) | remaining activity at 1 µM (KDR/VEGFR2) | remaining activity at 1 µM (LKB1) | remaining activity at 1 µM (LYN) | remaining activity at 1 µM (MAPKAPK3) | remaining activity at 1 µM (MARK3) | remaining activity at 1 µM (MEKK3) | remaining activity at 1 µM (MSK2/RPS6KA4) | remaining activity at 1 µM (MST3/STK24) | remaining activity at 1 µM (NEK9) | remaining activity at 1 µM (PKCMU/PRKD1) | further results
1 | Cc1cn(-c2cc(C(=O)Nc3ccc(C)c(N4Cc5cnc(NC6CC6)nc5C5(CC5)C4=O)c3)cc(C(F)(F)F)c2)cn1 [Compound 8, N-(3-(2'-(cyclopropylamino)-7'-oxo-5'H-spiro[cyclopropane-1,8'-pyrido[4,3-d]pyrimidine]-6'(7'H)-yl)-4-methylphenyl)-3-(4-methyl-1H-imidazol-1-yl)-5-(trifluoromethyl)benzamide] | > 40% | > 40% | ≤ 40% | ≤ 40% | > 40% | ≤ 40% | ≤ 40% | ≤ 40% | > 40% | > 40% | ≤ 40% | > 40% | ≤ 40% | > 40% | > 40% | ≤ 40% | > 40% | > 40% | > 40% | > 40% | remaining activity at 1 µM (PKCB1; PKCB1, 1 µM): > 40%; remaining activity at 1 µM (PKCNU/PRKD3): > 40%; remaining activity at 1 µM (PLK3): > 40%; remaining activity at 1 µM (PYK2): ≤ 40%; remaining activity at 1 µM (ROS/ROS1): ≤ 40%; remaining activity at 1 µM (RSK2): > 40%; remaining activity at 1 µM (SSTK/TSSK6): > 40%; remaining activity at 1 µM (STK22D/TSSK1): > 40%; remaining activity at 1 µM (TESK2): ≤ 40%; remaining activity at 1 µM (TYK2): ≤ 40%
2 | Cc1ccc(Nc2ncc3c(n2)C2(CC2)C(=O)N(c2cc(NC(=O)c4cccc(C(F)(F)F)c4)ccc2C)C3)cn1 [Compound 51, N-(4-methyl-3-(2'-((6-methylpyridin-3-yl)amino)-7'-oxo-5'H-spiro[cyclopropane-1,8'-pyrido[4,3-d]pyrimidine]-6'(7'H)-yl)phenyl)-3-(trifluoromethyl)benzamide] | > 40% | > 40% | ≤ 40% | ≤ 40% | > 40% | ≤ 40% | ≤ 40% | ≤ 40% | > 40% | ≤ 40% | ≤ 40% | > 40% | ≤ 40% | > 40% | > 40% | ≤ 40% | > 40% | > 40% | > 40% | > 40% | remaining activity at 1 µM (PKCB1; PKCbl, 1 µM): > 40%; remaining activity at 1 µM (PKCNU/PRKD3): > 40%; remaining activity at 1 µM (PLK3): > 40%; remaining activity at 1 µM (PYK2): ≤ 40%; remaining activity at 1 µM (ROS/ROS1): ≤ 40%; remaining activity at 1 µM (RSK2): > 40%; remaining activity at 1 µM (SSTK/TSSK6): > 40%; remaining activity at 1 µM (STK22D/TSSK1): > 40%; remaining activity at 1 µM (TESK2): ≤ 40%; remaining activity at 1 µM (TYK2): ≤ 40%
